Data set [1] is described as follows: Cytotoxicity (MTT assay) in BV-2 microglial cells. To be noted: mouse. The format is cell-based. In general terms: Formazan colour is commonly taken as a measure of viable cells.
For data set [2], the system named is NO production in LPS-activated BV-2 microglial cells. The experiment in a line: NO production (Griess reaction) in LPS-stimulated BV-2 microglial cells. The format is cell-based, mouse. Particulars: for IC50: Mus musculus, BV-2, BV-2 microglial cells, pretreated 1 h, 100 ng/mL LPS (footnote 24 h; text 12 h), means ± SDs (n = 3). How it is done:
The anti-inflammatory effects of the fourteen compounds (1–14) isolated from E. hamiltonianus were evaluated in activated BV-2 microglial cells by the production of NO and proinflammatory cytokines. […] […] The compounds were continuously assessed to determine whether they suppressed the expression of iNOS and COX-2 in LPS-stimulated BV-2 microglial cells. The cells were stimulated with LPS in the presence of these compounds at various concentrations, and the expression levels of iNOS and COX-2 were determined by Western blotting. […] Thus, compound 3 may be considered a potential anti-inflammatory agent.
For the Aβ-Hela-APPsw model, Hela cells were stably transfected with an APP carrying the Swedish mutation (APPsw) using BioT (Bioland Scientific LLC, Paramount, CA, USA) according to the manufacturer’s instructions, which was provided by Prof. Tae-Wan Kim (Department of Pathology, Columbia University of Medical Center, New York, NY 10032, USA). APPsw-transfected HeLa cells were grown in DMEM supplemented with 10% fetal bovine serum (FBS; Thermo Fisher Scientific, Lafayette, CA, USA), 1% penicillin/streptomycin (Thermo Fisher Scientific, Lafayette, CA, USA), 260 μg/mL Zeocin, and 400 μg/mL G418. The cells were maintained at 37 °C under a humidified atmosphere of 5% CO2. The stock sample solution was dissolved in DMSO and kept at −20 °C and diluted to the final concentration in fresh medium before each experiment. […] The EZ-Cytox kit (DAEILLAB, Cheongwon, Republic of Korea) was applied to detect the cell viability, following the manufacturer’s instructions, and measurements were taken by a microplate reader (BIO-TEK® Dower-Wave; BioTek, Winooski, VT, USA) under absorbance at 450 nm. The results were presented as the percentage of MTT reduction, compared with the control group as 100%. For the LPS-induced microglia model, the BV-2 mouse microglia cell line was provided by Prof. Lee Sung Jung’s research team in the College of Medicine, Seoul National University, and was cultured in DMEM-F12 with 5% FBS and 1% penicillin/streptomycin at 37 °C under a humidified atmosphere containing 5% CO2. And the cell viability assay was performed using the Aβ-Hela-APPsw model.
[…] The media were collected and centrifuged at 13,000 rpm for the removal of dead cells. The supernatants were collected and mixed with an equal volume (50 μL) of Griess reagents (1% sulfanilamide and N-(1-naphthyl) ethylenediamine dihydrochloride in 2.5% H3PO4) for 5 min at room temperature, and the Nitric Oxide concentration was measured at 540 nm using a microplate reader and compared with the sodium nitrite standard curve.
A general note: The Griess reaction detects nitrite, a stable product of nitric oxide.

A short description of data set [3]: Storage stability of isolated compound by LC-MS. The format is physicochemical. Particulars: stored 27 days (compound 2) or a significant length of time (compound 1), dried powder and DMSO solution. How it is done: In this study, qualitative profile analysis was performed on the 30% EtOH crude extract of the leaves of E. hamiltonianus using HPLC. The isolated phytochemicals, 1–14, were used as standards and compared to the crude extract profile represented by a high-performance liquid chromatogram (Figure 3). […] With comparative UV area normalization, compound 2 was confirmed as a pure compound initially when isolated (Figure S3.8). […] For reconfirmation, LC-MS analyses of both the dried powdered form of the compound when isolated and the compound in DMSO solution were performed (Figure S3.9), both sets of results showing signs of degradation. Compound 2 was degraded into three separate peaks, and the original compound 2 indicated by m/z 759.2 was verified by LC-MS analysis, and the peaks of 2a and 2b were indicated by m/z 465.1 and 627, respectively. […] Due to the close resemblance of compound 2 to compound 1, it was investigated in the same manner after a significant length of time.

Data set [4] concerns Aβ42 production in APPsw-transfected HeLa cells. Briefly: Aβ42 production (ELISA kit) in APPsw-transfected HeLa cells. It is filed as cell-based. Particulars: for IC50: 8 h, APPsw-transfected HeLa cells, means ± SDs (n = 3). How it is done: APPsw-transfected HeLa cells were cultured with the isolated compounds or DMSO in Dulbecco’s modified Eagle medium (DMEM, Welgene, Gyeongsan-si, Republic of Korea) for 8 h, and then the cell culture supernatants were collected for the following analyses. For the detection of Aβ secretion, kits for Aβ42 (KHB3442) and Aβ40 (KHB3482) were purchased from the Invitrogen Company and used according to the supplier’s instructions.
For the Aβ-Hela-APPsw model, Hela cells were stably transfected with an APP carrying the Swedish mutation (APPsw) using BioT (Bioland Scientific LLC, Paramount, CA, USA) according to the manufacturer’s instructions, which was provided by Prof. Tae-Wan Kim (Department of Pathology, Columbia University of Medical Center, New York, NY 10032, USA). APPsw-transfected HeLa cells were grown in DMEM supplemented with 10% fetal bovine serum (FBS; Thermo Fisher Scientific, Lafayette, CA, USA), 1% penicillin/streptomycin (Thermo Fisher Scientific, Lafayette, CA, USA), 260 μg/mL Zeocin, and 400 μg/mL G418. The cells were maintained at 37 °C under a humidified atmosphere of 5% CO2. The stock sample solution was dissolved in DMSO and kept at −20 °C and diluted to the final concentration in fresh medium before each experiment. For the cell viability assay, Hela cells were cultured in 96-well plates for 24 h and then various concentrations of comp 27 (0–10 μM) were treated for 12 h. The EZ-Cytox kit (DAEILLAB, Cheongwon, Republic of Korea) was applied to detect the cell viability, following the manufacturer’s instructions, and measurements were taken by a microplate reader (BIO-TEK® Dower-Wave; BioTek, Winooski, VT, USA) under absorbance at 450 nm. The results were presented as the percentage of MTT reduction, compared with the control group as 100%. For the LPS-induced microglia model, the BV-2 mouse microglia cell line was provided by Prof. Lee Sung Jung’s research team in the College of Medicine, Seoul National University, and was cultured in DMEM-F12 with 5% FBS and 1% penicillin/streptomycin at 37 °C under a humidified atmosphere containing 5% CO2. And the cell viability assay was performed using the Aβ-Hela-APPsw model.
For orientation: In an ELISA, binding on a coated surface is turned into a signal by an enzyme label.

For a further data set, the system named is iNOS. Briefly: Western blot of LPS-induced iNOS expression in BV-2 microglial cells. It is filed as cell-based, mouse. Particulars: LPS-stimulated BV-2 microglial cells, various concentrations (1.0, 2.0, 4.0 µM). How it is done: The anti-inflammatory effects of the fourteen compounds (1–14) isolated from E. hamiltonianus were evaluated in activated BV-2 microglial cells by the production of NO and proinflammatory cytokines. BV-2 microglial cells were stimulated with 0.1 µg/mL LPS for 12 h in the presence of the compounds at various concentrations, and the levels of NO in the culture supernatants were measured using Griess reactions. […] The compounds were continuously assessed to determine whether they suppressed the expression of iNOS and COX-2 in LPS-stimulated BV-2 microglial cells. The cells were stimulated with LPS in the presence of these compounds at various concentrations, and the expression levels of iNOS and COX-2 were determined by Western blotting. […] Thus, compound 3 may be considered a potential anti-inflammatory agent.
The total protein samples (10 μg) were loaded in sodium dodecyl sulfate polyacrylamide gel electrophoresis (SDS–PAGE) gels with 10% acrylamide/bis and transferred to polyvinylidene difluoride membranes (Millipore, Burlington, MA, USA). Then, the membranes were blocked with 5% silky milk dissolved in TBST (Tris Buffered saline Tween) for 1 h under room temperature and incubated overnight at 4 °C with specific primary antibodies (1:1000). After being washed with TBST, the membranes were incubated with secondary HRP-conjugated IgG (1:2000) at room temperature for 1 h and visualized using enhanced chemiluminescence (ECL) reagents (Thermo Fisher Scientific, Lafayette, CA, USA). Densitometry analysis of the bands was performed with the fusion solo system (Vilber, Paris, France). The band densities were determined as the intensities of protein by TotalLab TL120 software v2009 (TotalLab, Newcastle, UK).

The mark [5] stands for this setting: BV-2 microglial cells, MTT assay, read-out: IC50 Value (µM) Cytotoxicity.

Entries after “also recorded” stand apart in the source; their conditions may differ. Read-outs that look alike come from different tables or passages of the source.

As a reminder, the IC50 is the concentration at which inhibition is half-maximal. Turning to `COc1cc(-c2oc3cc(O[C@@H]4O[C@H](CO)[C@@H](O)[C@H](O)[C@H]4O)cc(O)c3c(=O)c2O[C@@H]2O[C@H](CO)[C@@H](O)[C@H](O)[C@H]2O[C@@H]2OC[C@@H](O)[C@H](O)[C@H]2O)ccc1O` [Compound 1, isorhamnet-in-3-O-(2″-O-(β-D-xylopyranosyl)-β-D-glucopyranoside)-7-O-β-D-glucopyranoside], the 50% inhibitory concentration (IC50) at 12 h in data set [1] (setting [5]) was over 100 µM. Moreover, the IC50 in data set [2] was over 100 µM. Moreover, the “Degradation on storage (in words)” value in data set [3] was “did not show any sign of degradation”.

For `COc1cc(-c2oc3cc(O[C@@H]4O[C@H](CO)[C@@H](O)[C@H](O)[C@H]4O)cc(O)c3c(=O)c2O[C@@H]2O[C@H](CO)[C@@H](O)[C@H](O)[C@H]2O)ccc1O` [Compound 5, isorhamnetin-3,7-di-O-β-D-glucopyranoside], the IC50 at 12 h in data set [1] (setting [5]) is over 100 µM. Besides, the IC50 in data set [2] is over 100 µM.

As for `O=c1c(O[C@@H]2O[C@H](CO)[C@@H](O)[C@H](O)[C@H]2O[C@@H]2OC[C@@H](O)[C@H](O)[C@H]2O)c(-c2ccc(O)c(O)c2)oc2cc(O)cc(O)c12` [Compound 6, quercetin-3-O-sambubioside], the concentration for half-maximal inhibition (IC50) at 12 h in data set [1] (setting [5]) was over 100 µM. Moreover, the IC50 is over 100 µM in data set [2] and over 100 µM in data set [4] (Homo sapiens, HeLa).

As to `O=c1c(O[C@@H]2O[C@H](CO)[C@@H](O)[C@H](O)[C@H]2O)c(-c2ccc(O)c(O)c2)oc2cc(O)cc(O)c12` [Compound 7, isoquercetin], in data set [1] (setting [5]), the IC50 at 12 h is over 100 µM. Besides, the IC50 in data set [2] is over 100 µM.

Consider `O=c1c(O[C@@H]2O[C@H](CO)[C@@H](O)[C@H](O)[C@H]2O)c(-c2ccc(O)c(O[C@@H]3O[C@H](CO)[C@@H](O)[C@H](O)[C@H]3O)c2)oc2cc(O)cc(O)c12` [Compound 8, quercetin-3,3′-di-O-β-D-glucopyranoside], for which the IC50 at 12 h in data set [1] (setting [5]) was over 100 µM. The IC50 in data set [2] is over 100 µM.

Regarding `COc1cc([C@H]2OC[C@H]3[C@@H]2CO[C@@H]3c2cc(OC)c(O[C@@H]3O[C@H](CO)[C@@H](O)[C@H](O)[C@H]3O)c(OC)c2)cc(OC)c1O[C@@H]1O[C@H](CO)[C@@H](O)[C@H](O)[C@H]1O` [Compound 9, liriodendrin], the 50% inhibitory concentration (IC50) at 12 h in data set [1] was over 100 µM.

`CCCCOC(=O)C(CC(=O)O)OC(=O)C=Cc1ccc(O)cc1` (stereo not drawn) [Compound 10, p-coumaroylmalic acid 1-butyl ester]: the IC50 at 12 h in data set [1] (setting [5]) is over 100 µM. The IC50 in data set [2] is over 100 µM.

For the compound `O=c1occc2c(O)cc(O)cc12` [Compound 11, 5,7-dihydroxyisocoumarin], the IC50 at 12 h in data set [1] (setting [5]) is over 100 µM. For the same compound, the IC50 in data set [2] is over 100 µM.

Turning to `O=C(O)/C=C/c1ccc(O)c(O[C@@H]2O[C@H](CO)[C@@H](O)[C@H](O)[C@H]2O)c1` [Compound 12, caffeic acid trans-3-O-β-D-glucopyranoside], in data set [1] (setting [5]), the 50% inhibitory concentration (IC50) at 12 h was over 100 µM. Further, the IC50 was over 100 µM in data set [2] and over 100 µM in data set [4] (Homo sapiens, HeLa).

Consider `COC(=O)/C=C/c1ccc(O)c(O[C@@H]2O[C@H](CO)[C@@H](O)[C@H](O)[C@H]2O)c1` [Compound 13, methyl trans-3-O-(β-D-glucopyranosyl) caffeate], for which, in data set [1] (setting [5]), the IC50 at 12 h was over 100 µM. In addition, the IC50 is over 100 µM in data set [2]; 65.4 ± 6.71 µM in data set [4]; 53.1 to 65.4 µM in data set [4] (Homo sapiens, HeLa). Also, the “Inhibitory effect on Aβ production (in words)” value in data set [4] (Hela-swAPP cells) is recorded as “reduced Aβ levels”.

For the compound `OC[C@H]1O[C@@H](OC[C@H]2O[C@@H](OCc3ccccc3)[C@H](O)[C@@H](O)[C@@H]2O)[C@H](O)[C@@H](O)[C@@H]1O` [Compound 14, benzyl gentiobioside], the IC50 at 12 h in data set [1] (setting [5]) is over 100 µM. Also, in the data set on iNOS, the “LPS-induced iNOS protein expression (in words)” value is on record as “suppressed; also recorded: effectively downregulated”. The “Inhibitory effect on NO production (in words)” value in data set [2] (LPS-stimulated BV-2 microglial cells) was “effectively downregulated; also recorded: good inhibitory effects”. The concentration for half-maximal inhibition (IC50) is 17.4 ± 2.77 µM in data set [2] and 53.1 to 65.4 µM in data set [4] (Homo sapiens, HeLa).

`C[C@@H]1C[C@H]2[C@@H]3CCC4=CC(=O)C=C[C@]4(C)[C@@]3(F)[C@@H](O)C[C@]2(C)[C@@]1(O)C(=O)CO` [Dexamethasone, reference compound]: the IC50 at 12 h in data set [1] (setting [5]) is over 100 µM. In data set [2], the IC50 is 1.24 ± 0.104 µM.

In data set [4], `COc1cc2c(OC)c3c(c(-c4ccc5c(c4)OCO5)c2cc1OC)C(=O)OC3` [Justicidine A, reference compound] returned an IC50 of 1 ± 0.043 µM.

The values are drawn from PMC11054132, “Neuroprotective Effects of Chemical Constituents of Leaves of Euonymus hamiltonianus Wall” (Plants, 2024).
